Measurements: PubChem BioAssay (NCI)
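The compound was tested at five concentrations on cells cultured in 96-well plates, with a 48-hour exposure period. TGI marks complete inhibition of growth.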

Columns and labels:
Assay in all cases: inhibition of tumour cell growth, NCI panel, 48 h
SK-MEL-5 melanoma = tested on: SK-MEL-5 melanoma
SNB-19 CNS = tested on: SNB-19 CNS
MOLT-4 leukemia = tested on: MOLT-4 leukemia
MDA-MB-435 = tested on: MDA-MB-435
OVCAR-3 ovarian = tested on: OVCAR-3 ovarian
786-0 renal = tested on: 786-0 renal
RPMI-8226 leukemia = tested on: RPMI-8226 leukemia
M14 melanoma = tested on: M14 melanoma
NCI-H23 lung = tested on: NCI-H23 lung
HS 578T breast = tested on: HS 578T breast
SF-539 CNS = tested on: SF-539 CNS
OVCAR-5 ovarian = tested on: OVCAR-5 ovarian
HOP-92 NSCLC = tested on: HOP-92 NSCLC
MCF7 breast = tested on: MCF7 breast
SK-MEL-28 melanoma = tested on: SK-MEL-28 melanoma
CAKI-1 renal = tested on: CAKI-1 renal
HCC-2998 colon = tested on: HCC-2998 colon
RXF 393 renal = tested on: RXF 393 renal
NCI-H226 lung = tested on: NCI-H226 lung

SMILES	TGI (SK-MEL-5 melanoma)	TGI (SNB-19 CNS)	TGI (MOLT-4 leukemia)	TGI (MDA-MB-435)	TGI (OVCAR-3 ovarian)	TGI (786-0 renal)	TGI (RPMI-8226 leukemia)	TGI (M14 melanoma)	TGI (NCI-H23 lung)	TGI (HS 578T breast)	TGI (SF-539 CNS)	TGI (OVCAR-5 ovarian)	TGI (HOP-92 NSCLC)	TGI (MCF7 breast)	TGI (SK-MEL-28 melanoma)	TGI (CAKI-1 renal)	TGI (HCC-2998 colon)	TGI (RXF 393 renal)	TGI (NCI-H226 lung)
CC(=O)Nc1cc(C(=O)Nc2cc(C(=O)N3CC(CCl)c4c3cc(N)c3ccccc43)nn2C)nn1C (stereo not given)	1.23 µM	3.14 µM	0.0687 µM	0.281 µM	2.61 µM	0.332 µM	1.41 µM	2.07 µM	0.0678 µM	1.55 µM	0.0549 µM	17.3 µM	0.1 µM	> 66.5 µM	0.154 µM	0.525 µM	0.491 µM	0.226 µM	
CNn1c(-c2ccccc2)n[nH]c1=O	> 100 µM	> 100 µM	> 100 µM	> 100 µM	> 100 µM	> 100 µM	> 100 µM	> 100 µM	> 100 µM	> 100 µM	> 100 µM	> 100 µM	> 100 µM	> 100 µM	> 100 µM	> 100 µM	> 100 µM		> 100 µM
Cc1nc2ccccc2c(=O)n1NC(=O)c1ccc(CS)cc1	29.2 µM	> 100 µM	12.3 µM	31.3 µM	30.6 µM	23.6 µM	> 100 µM	34.2 µM	52.1 µM	95.4 µM	26.6 µM	83.9 µM	40.8 µM	26.2 µM	28.8 µM		45.8 µM		14.2 µM
CC(=O)OCc1cc(CCC(=O)NCCNc2c3ccccc3nc3ccccc23)cc(COC(C)=O)c1O[Si](C)(C)C(C)(C)C		31.2 µM	5.25 µM	8.06 µM	5.68 µM	31.3 µM	5.77 µM	23.2 µM	34.7 µM	13.9 µM	4.99 µM	29.1 µM	22.7 µM	4.57 µM	18.2 µM			9.37 µM	4.72 µM
C[N+](C)([O-])CCC=C1c2ccccc2CCc2ccccc21	34.3 µM	> 100 µM	40.7 µM	38.1 µM	58.8 µM	19.2 µM	34.5 µM	> 100 µM	> 100 µM	64.9 µM	> 100 µM	> 100 µM	94.4 µM	48.2 µM	98.7 µM	79.4 µM		39.8 µM	67.5 µM
O=C1OC[C@@H]2Cc3cc4c(cc3[C@H](c3ccc5c(c3)OCO5)[C@@H]12)OCO4	> 25 µM	> 25 µM	> 25 µM	> 25 µM	> 25 µM	> 25 µM	> 25 µM	> 25 µM	> 25 µM			> 25 µM		> 25 µM	> 25 µM	> 25 µM	> 25 µM		
S=C(NCc1ccccc1)c1nc[nH]c1C(=S)NCc1ccccc1		18.6 µM	25.4 µM	19.6 µM	18.8 µM	18.8 µM	35.6 µM	20.7 µM	25.7 µM		23.2 µM	21.7 µM	12.3 µM		26.9 µM	18.7 µM	23.6 µM	24.9 µM	8.1 µM
CC1=C(C#N)C(C#N)(C#N)C(NN(C)C)C1 (stereo not given)	17.5 µM		79.5 µM	75 µM		25.6 µM	35.9 µM	> 100 µM	40.8 µM	> 100 µM	> 100 µM	47.4 µM	30.8 µM	77.3 µM	> 100 µM	7 µM	32.1 µM	31.3 µM	
O=C(NCCCCCCNC(=O)c1cccc2ccccc12)Nc1cccc2ccccc12	> 100 µM	> 100 µM	> 100 µM	> 100 µM	> 100 µM	> 100 µM	> 100 µM	> 100 µM	> 100 µM	> 100 µM	> 100 µM	> 100 µM	> 100 µM	> 100 µM	> 100 µM	> 100 µM	> 100 µM	> 100 µM	
CS(=O)(=O)Nc1ccc(N2Cc3cnc4ccc5[nH]ccc2c5c34)cc1	29 µM	42 µM	8.94 µM	31.5 µM	32.2 µM	40.3 µM	48.1 µM	32.2 µM	76.9 µM	> 100 µM		84.5 µM	63.6 µM	> 100 µM	41.6 µM	> 100 µM			42.2 µM
CCC(C)(C)/C(CC(O)(C(F)(F)F)C(F)(F)F)=N\O	> 100 µM	> 100 µM	> 100 µM	> 100 µM	> 100 µM	> 100 µM	> 100 µM	> 100 µM	> 100 µM	> 100 µM	> 100 µM	> 100 µM	> 100 µM		> 100 µM	> 100 µM	> 100 µM	> 100 µM	> 100 µM
O=C(CCCn1ccnc1[N+](=O)[O-])NCCn1cncc1[N+](=O)[O-]	> 100 µM		> 100 µM	> 100 µM	> 100 µM	> 100 µM	> 100 µM	> 100 µM	> 100 µM	> 100 µM	> 100 µM	> 100 µM	> 100 µM	> 100 µM	> 100 µM	> 100 µM		> 100 µM	> 100 µM
O=[N+]([O-])c1ccc(/C=N/n2c(CO)nc3ccccc32)o1	6.78 µM	30.7 µM	7.12 µM	13.9 µM	6.91 µM	17.9 µM	19.6 µM	16.7 µM	20 µM	35.6 µM	55 µM	24.7 µM	14.8 µM	15.2 µM	12.6 µM	24.8 µM		18.3 µM	39.5 µM
